Reference: patent US20040147531A1, “Amidine derivatives for treating amyloidosis” (priority 2001, published 2004)

How the values were obtained:
Parameters in all cases: key: “+” = active; “−” = inactive; “pr” = promoting
[1] = target: T1, Aβ (Homo sapiens, UniProt P05067); experiment: circular dichroism (CD) assay, inhibition of fibrillogenesis; assay type: biochemical; settings: soluble Aβ, 37° C., 190-240 nm
T1 construct: Aβ peptide: Aβ (1-40) 95% purity (American Peptide Company, Inc, Sunnyvale, Calif. USA)
T1 sequence (P05067 672-711 limits assumed): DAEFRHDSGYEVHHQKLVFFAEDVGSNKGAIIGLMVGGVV
Excerpt: (§1) Test compounds were purchased from commercial sources or synthesized and screened by thioflavin T fluorescent assay (“ThT assay”). Alternatively, one could screen test compounds by circular dichroism (“CD”), electron microscopy (“EM”), or mass spectroscopy (“MS”) assays. The MS assay gives data on the ability of compounds to bind to an amyloid protein, whereas the ThT, EM, and CD assays give data on inhibition of fibrillogenesis.
In the circular dichroism (“CD”) assay, samples were transferred to 0.1-cm path-length quartz cuvettes and CD scans were taken using a Jasco J-715 spectropolarimeter. Readings were taken at 37° C., between 190 and 240 nm, with a resolution of 0.1 nm and a bandwidth of 1 nm. […]

[2] = target: T1, Aβ; experiment: electron microscopy (EM) assay, inhibition of fibrillogenesis; assay type: biochemical; settings: soluble Aβ
Excerpt: as §1
Similarly, in the electron microscopy (“EM”) assay, each sample was sonicated for 1 min to disrupt large clumps before testing. The sample (5-μL aliquot) was placed on freshly cleaved mica and allowed to air dry. The mica was placed in a Balzers High-vacuum, Freeze-Etch Unit (model 301), shadowed with platinum (30° angle), and coated with a carbon film. The replica was removed from the mica by flotation and transferred onto a 300-mesh copper grid. Samples were examined using a Joel 2000 FX transmission electron microscope. […]

[3] = target: T2, Aβ40 (Homo sapiens, UniProt P05067); experiment: mass spectroscopy (MS) assay, binding to Aβ; settings: 200 μM test compound, 20 μM solubilized Aβ40, pH 7.4; ability to bind to Aβ
T2 construct: 200 μM of a test compound and 20 μM of solubilized Aβ40
T2 sequence (P05067 672-711 limits assumed): as above
Method: Test compounds were purchased from commercial sources or synthesized and screened by thioflavin T fluorescent assay (“ThT assay”). Alternatively, one could screen test compounds by circular dichroism (“CD”), electron microscopy (“EM”), or mass spectroscopy (“MS”) assays.
And in the mass spectroscopy (“MS”) assay, samples were prepared as aqueous solutions containing 20% ethanol, 200 μM of a test compound and 20 μM of solubilized Aβ40. The pH value of each sample was adjusted to 7.4 (±0.2) by addition of 0.1% aqueous sodium hydroxide. The solutions were then analyzed by electrospray ionization mass spectroscopy using a Waters ZQ 4000 mass spectrometer. Samples were introduced by direct infusion at a flow-rate of 25 μL/min within 2 hr. after sample preparation. The source temperature was kept at 70° C. and the cone voltage was 20 V for all the analysis. Data were processed using Masslynx 3.5 software.

Structure (SMILES): N=C(N)c1ccc2nc(-c3ccc(CCc4ccc(-c5nc6ccc(C(=N)N)cc6[nH]5)s4)cc3)[nH]c2c1 [Compound 116]
- CD [1]: −
- EM [2]: +
- MS Assay [3]: +

Structure (SMILES): N=C(N)c1ccc(OCCCCCCCCCCCCOc2ccc(C(=N)N)cc2Br)c(Br)c1 [Compound 76]
- CD [1]: −
- EM [2]: +
- MS Assay [3]: +

Structure (SMILES): COc1ccc(-c2ccc(-c3ccc(C(=N)N)cc3)o2)cc1 [Compound 117]
- CD [1]: −
- EM [2]: +
- MS Assay [3]: +

Structure (SMILES): N=C(N)c1ccc2nc(-c3ccc(Cc4ccc(-c5nc6ccc(C(=N)N)cc6[nH]5)cc4)cc3)[nH]c2c1 [Compound 114]
- CD [1]: −
- EM [2]: +
- MS Assay [3]: +

Structure (SMILES): CCc1ccc(CCc2ccc(-c3nc4ccc(C(=N)N)cc4[nH]3)cc2)cc1 [Compound 125]
- CD [1]: −
- EM [2]: +
- MS Assay [3]: +

Structure (SMILES): COc1cc(NC(=N)N)ccc1-c1ccc(-c2ccc(NC(=N)N)cc2OC)o1 [Compound 121]
- CD [1]: −
- EM [2]: +
- MS Assay [3]: +

Structure (SMILES): N=C(N)c1ccc(-c2coc(-c3ccc(C(=N)N)cc3)c2)cc1 [Compound 120]
- CD [1]: −
- EM [2]: +
- MS Assay [3]: +

Structure (SMILES): CC(C)NC(=N)c1ccc(COc2cccc3c(OCc4ccc(C(=N)NC(C)C)cc4)cccc23)cc1 [Compound 61]
- CD [1]: +
- EM [2]: +
- MS Assay [3]: +

Structure (SMILES): CC(C)NC(=N)c1cccc(COc2cccc3c(OCc4cccc(C(=N)NC(C)C)c4)cccc23)c1 [Compound 60]
- CD [1]: +
- EM [2]: −
- MS Assay [3]: +

Structure (SMILES): CC(C)NC(=N)c1ccc(OCc2ccc(COc3ccc(C(=N)NC(C)C)cc3)c3ccccc23)cc1 [Compound 62]
- CD [1]: +
- EM [2]: +
- MS Assay [3]: +

Structure (SMILES): N=C(N)c1ccc(-c2cc(-c3cccc(C(=N)N)c3)no2)cc1 [Compound 83]
- CD [1]: −
- EM [2]: +
- MS Assay [3]: +

Structure (SMILES): COc1ccc(-c2ccc(-c3ccc(NC(=N)N)cc3)o2)cc1 [Compound 123]
- CD [1]: −
- EM [2]: +
- MS Assay [3]: +

Structure (SMILES): Cc1cc(C(=N)N)ccc1-c1ccc(-c2nc3ccc(C(=N)N)cc3[nH]2)o1 [Compound 131]
- MS Assay [3]: +

Structure (SMILES): N=C(N)c1ccc(-c2cc(-c3cccc(C(=N)N)c3)on2)cc1 [Compound 82]
- MS Assay [3]: −

Structure (SMILES): CCC(C)NC(=N)c1ccc(OCCCCCOc2cccc(C3=NC4C=C(C(=N)NC(C)C)C=CC4N3)c2)cc1.Cl.Cl.Cl (centres unmarked) [Compound 96]
- MS Assay [3]: +

Structure (SMILES): CCCCNC(=N)c1ccc2nc(-c3ccc(CCc4ccc(-c5nc6ccc(C(=N)NCCCC)cc6[nH]5)cc4)cc3)[nH]c2c1 [Compound 89]
- MS Assay [3]: +

Structure (SMILES): CC(C)NC(=N)c1ccc(-c2ccc(-c3ccc(C(=N)NC(C)C)cc3)o2)cc1 [Compound 100]
- MS Assay [3]: +

Structure (SMILES): CC(C)c1ccc(OCc2ccc(C(=N)N)cc2)cc1 [Compound 70]
- CD [1]: +
- EM [2]: +
- MS Assay [3]: +

Structure (SMILES): N=C(N)c1cccc(COc2cccc3c(OCc4cccc(C(=N)N)c4)cccc23)c1 [Compound 77]
- MS Assay [3]: +

Structure (SMILES): Cn1c(-c2nc3ccc(C(=N)N)cc3[nH]2)ccc1-c1nc2ccc(C(=N)N)cc2[nH]1 [Compound 103]
- CD [1]: −
- EM [2]: +
- MS Assay [3]: +

Structure (SMILES): N=C(N)c1ccc2nc(-c3ccc(C4CC4c4ccc(-c5nc6ccc(C(=N)N)cc6[nH]5)cc4)cc3)[nH]c2c1 (centres unmarked) [Compound 115]
- CD [1]: −
- EM [2]: +
- MS Assay [3]: +

Structure (SMILES): Cc1cc(C(=N)N)ccc1-c1ccc(-c2ccc(C(=N)N)cc2C)o1 [Compound 118]
- MS Assay [3]: −

Structure (SMILES): N=C(N)c1ccc2[nH]c(-c3ccc4c(=O)cc(-c5ccccc5)oc4c3)nc2c1 [Compound 119]
- MS Assay [3]: +

Structure (SMILES): N=C(Nc1ccc(OCCCCCOc2ccc(NC(=N)c3ccccc3)cc2)cc1)c1ccccc1 [Compound 134]
- CD [1]: +
- EM [2]: −
- MS Assay [3]: +

Structure (SMILES): N=C(N)c1ccc(-c2ccc(-c3nc4ccccc4[nH]3)o2)cc1 [Compound 122]
- CD [1]: +
- EM [2]: +
- MS Assay [3]: +

Structure (SMILES): N=C(N)c1ccc(-c2ccc(-c3nc4cc(C(=N)N)ccc4o3)o2)cc1 [Compound 129]
- MS Assay [3]: +

Structure (SMILES): N=C(N)c1ccc2nc(-c3ccc(-c4ccc(-c5nc6ccc(C(=N)N)cc6[nH]5)cc4)cc3)[nH]c2c1 [Compound 113]
- MS Assay [3]: +

Structure (SMILES): Cn1c(-c2ccc(C(=N)N)cc2)ccc1-c1ccc(C(=N)N)cc1 [Compound 108]
- MS Assay [3]: +
